The source of these data is US20230365563A1, “QUINAZOLINE COMPOUND AND APPLICATION THEREOF” (SHANGHAI PHARMACEUTICALS HOLDING CO., LTD., priority 2020, published 2023).

Structures can show the parent of a compound that is named as a salt.

One assay deals with T1, KRAS-G12D and SOS1 (Homo sapiens, UniProt P01116, G12D).
T1 construct: purchased
Put plainly: Inhibition of KRAS-G12D/SOS1 binding (Cisbio binding kit, 665/615 ratio), Effect Embodiment A. To be noted: read-out: GTP-KRAS-G12D:SOS1 IC50. Summed up: (§1)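 Duplicate wells received an eleven-point, threefold compound titration whose top point was the stock solution; final DMSO 1%.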

The target of a further assay is T2, KRAS_G12D and cRAF (Homo sapiens, UniProt P01116, G12D).
T2 construct: purchased
Put plainly: Inhibition of KRAS_G12D/cRAF binding (Cisbio binding kit, 665/615 ratio), Effect Embodiment B. Conditions: read-out: GTP-KRAS-G12D:CRAF IC50. A digest of the protocol:
as §1

In a further assay the target is T3, KRAS_WT and SOS1 (Homo sapiens, UniProt P01116).
T3 construct: purchased
Put plainly: Inhibition of KRAS_WT/SOS1 binding (Cisbio binding kit, 665/615 ratio), Effect Embodiment C. Conditions: read-out: GTP-KRAS-WT:SOS1 IC50. Summed up:
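Compounds tested as 3-fold, 11-point dilutions in duplicate at 1% DMSO final against the KRAS_WT/SOS1 binding system. IC50 derived by nonlinear regression fit.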

T1 sequence (P01116 1-188 isoform P01116-2 G12D): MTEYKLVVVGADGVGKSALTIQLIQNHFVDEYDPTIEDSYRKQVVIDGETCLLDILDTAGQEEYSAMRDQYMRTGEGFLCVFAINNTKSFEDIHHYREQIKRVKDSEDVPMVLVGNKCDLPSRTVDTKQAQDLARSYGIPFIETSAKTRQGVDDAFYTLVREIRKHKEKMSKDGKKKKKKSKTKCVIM
T2 sequence (P01116 1-188 isoform P01116-2 G12D): as above
T3 sequence (P01116 1-188 isoform P01116-2): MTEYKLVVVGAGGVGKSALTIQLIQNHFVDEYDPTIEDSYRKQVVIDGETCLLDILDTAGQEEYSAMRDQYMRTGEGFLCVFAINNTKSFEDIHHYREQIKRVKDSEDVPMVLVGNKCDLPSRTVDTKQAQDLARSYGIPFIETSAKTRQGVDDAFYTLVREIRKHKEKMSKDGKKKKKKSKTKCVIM

Broadly, the IC50 is the concentration needed to halve the response being measured. Turning to `CN1C[C@H](F)C[C@H]1COc1nc(N2CC3CCC(C2)N3)c2cc(Cl)c(-c3cc(O)cc4ccccc34)c(F)c2n1` (single isomer, unassigned) [Compound 168, (R or S)-4-(4-((1R,5S)-3,8-diazabicyclo[3.2.1]octan-3-yl)-6-chloro-8-fluoro-2-((2S,4R)-4-fluoro-1-methylpyrrolidin-2-yl)methoxy)quinazolin-7-yl)naphthalenol dihydrochloride], the IC50 at KRAS-G12D and SOS1 was found to be 18.7 nM; on KRAS_G12D and cRAF it was 22.4 nM; at KRAS_WT and SOS1, 458 nM.
On the same counts, the results for `C[C@H]1C[C@@H](COc2nc(N3CC4CCC(C3)N4)c3cc(Cl)c(-c4cc(O)cc5ccccc45)c(F)c3n2)N(C)C1` (single isomer, unassigned) [Compound 190, 4-((R or S)-4-((1R,5S)-3,8-diazabicyclo[3.2.1]octan-3-yl)-6-chloro-2-((2S,4S)-1,4-dimethylpyrrolidin-2-yl)methoxy)-8-fluoroquinazolin-7-yl)naphthalen-2-ol diformate] are 15.3 nM, 28.9 nM and 292 nM.
On the same counts, the results for `CN(C)CCCCCCOc1nc(N2C[C@H]3CC[C@@H](C2)N3)c2cc(Cl)c(-c3cc(O)cc4ccccc34)c(F)c2n1` (single isomer, unassigned) [Compound 68, (S or R)-4-(4-((1R,5S)-3,8-diazabicyclo[3.2.1]octan-3-yl)-6-chloro-2-((6-(dimethylamino)hexyl)oxy)-8-fluoroquinazolin-7-yl)naphthalen-2-ol dihydrochloride] are 214 nM, 646 nM and 16700 nM.
On the same counts, the results for `CN1CCC[C@H]1COc1nc(N2CC3CCC(C2)N3)c2cc(F)c(-c3cc(O)cc4ccccc34)c(F)c2n1` (single isomer, unassigned) [Compound 160a, (R or S) 4-(4-((1R,5S)-3,8-diazabicyclo[3.2.1]octan-3-yl)-6,8-difluoro-2-((S)-1-methylpyrrolidin-2-yl)methoxy)quinazolin-7-yl)naphthalen-2-ol dihydrochloride] are 19.4 nM, 15.1 nM and 152 nM.
Take `C[C@H]1CCCCN1CCOc1nc(N2CC3CCC(C2)N3)c2cc(Cl)c(-c3cc(O)cc4ccccc34)c(F)c2n1` (single isomer, unassigned) [Compound 268, (R or S)-4-(4-((1R,5S)-3,8-diazacyclo[3.2.1]octan-3-yl)-6-chloro-8-fluoro-2-(2-((S)-2-methylpiperidin-1-yl)ethoxy)quinazolin-7-yl)naphthalen-2-ol diformate]: the IC50 at KRAS-G12D and SOS1 worked out at 52.4 nM; on KRAS_G12D and cRAF, 346 nM; at KRAS_WT and SOS1, 3610 nM.
On the same counts, the results for `Cn1cnc(Cn2ccc3ccc(CNCc4[nH]c5ccccc5c4[C@H]4NC(=O)c5ccc(O)cc54)cc32)c1` [BI-2852, reference compound] are 238 nM, 2700 nM and 136 nM.
Taken in the same sequence, the figures for `CCc1cccc2cc(O)cc(-c3c(F)cc4c(N5CC6CCC(C5)N6)nc(OC[C@H](C)CN5C6CCC5CC(OC)C6)nc4c3F)c12` (single isomer, unassigned) [Compound 286a, (S or R)-4-(4-((1R,5S)-3,8-diazabicyclo[3.2.1]octan-3-yl)-6,8-difluoro-2-((R)-3-((1R,3S,5S)-3-methoxy-8-azabicyclo[3.2.1]octan-8-yl)-2-methylpropoxy)quinazolin-7-yl)-5-ethylnaphthalen-2-o1 dihydrochloride] were 13.5 nM, 9.77 nM and 262 nM.
On the same counts, the results for `CCC(COc1nc(N2CC3CCC(C2)N3)c2cc(Cl)c(-c3cc(O)cc4ccccc34)c(F)c2n1)CN1C2CCC1COC2` (single isomer, unassigned) [Compound 201b, (4S or 4R)-4-(2-((2S or 2R)-2-(3-oxa-8-azabicyclo[3.2.1]octan-8-ylmethyl)butoxy)-4-((1R,5S)-3,8-diazabicyclo[3.2.1]octan-3-yl)-6-chloro-8-fluoroquinazolin-7-yl)naphthalen-2-ol formate] are 54.6 nM, 45.8 nM and 2180 nM.
In the case of `CC(C)N(C)CCCOc1nc(N2CC3CCC(C2)N3)c2cc(Cl)c(-c3cc(O)cc4ccccc34)c(F)c2n1` (single isomer, unassigned) [Compound 50a, 4-((S or R)-4-((1R,5S)-3,8-diazabicyclo[3.2.1]octan-3-yl)-6-chloro-8-fluoro-2-(3-(isopropyl(methyl)amino)propoxy)quinazolin-7-yl)naphthalen-2-ol trifluoroacetate], the 50% inhibitory concentration (IC50) came to 44.3 nM at KRAS-G12D and SOS1; 155 nM on KRAS_G12D and cRAF; 1690 nM at KRAS_WT and SOS1.
On the same counts, the results for `C[C@@H](COc1nc(N2CC3CCC(C2)N3)c2cc(Cl)c(-c3cc(O)cc4ccccc34)c(F)c2n1)CN(C)C` (single isomer, unassigned) [Compound 203, 4-((S or R)-4-((1R,5S)-3,8-diazabicyclo[3.2.1]octan-3-yl)-6-chloro-2-((R)-3-(dimethylamino)-2-methylpropoxy)-8-fluoroquinazolin-7-yl)naphthalen-2-ol diformate] are 19.8 nM, 33.9 nM and 893 nM.
On the same counts, the results for `C#Cc1cccc2cc(O)cc(-c3c(F)cc4c(N5CC6CCC(C5)N6)nc(OCCCN5C6CCC5COC6)nc4c3F)c12` (single isomer, unassigned) [Compound 273a, 4-((7S or 7R)-2-(3-(3-oxa-8-azabicyclo[3.2.1]octan-8-yl)propoxy)-4-((1R,5S)-3,8-diazabicyclo[3.2.1]octan-3-yl)-6,8-difluoroquinazolin-7-yl)-5-ethynylnaphthalen-2-ol diformate] are 11.3 nM, 7.91 nM and 69.8 nM.
Taken in the same sequence, the figures for `CN(C)C(=O)OCC1CCC2(COc3nc(N4CC5CCC(C4)N5)c4cc(Cl)c(-c5cc(O)cc6ccccc56)c(F)c4n3)CCCN12` (single isomer, unassigned) [Compound 232a] were 13.7 nM, 7.79 nM and 10.3 nM.
In the case of `CCN(C)CCCOc1nc(N2CC3CCC(C2)N3)c2cc(Cl)c(-c3cc(O)cc4ccccc34)c(F)c2n1` (single isomer, unassigned) [Compound 49a], the IC50 came out at 36.2 nM on KRAS-G12D and SOS1; 159 nM on KRAS_G12D and cRAF; 1710 nM at KRAS_WT and SOS1.
Taken in the same sequence, the figures for `CCNCCCOc1nc(N2CC3CCC(C2)N3)c2cc(Cl)c(-c3cc(O)cc4ccccc34)c(F)c2n1` (single isomer, unassigned) [Compound 105, dihydrochloride] were 22.4 nM, 185 nM and 3040 nM.
On the same counts, the results for `CCc1cccc2cc(O)cc(-c3c(F)cc4c(N5CC6CCC(C5)N6)nc(OC[C@H](C)CN5C6CCC5COC6)nc4c3F)c12` (single isomer, unassigned) [Compound 284a, (4S or 4R)-4-(2-((2R)-3-(3-oxa-8-azabicyclo[3.2.1]octan-8-yl)-2-methylpropoxy)-4-((1R,5S)-3,8-diazabicyclo[3.2.1]octan-3-yl)-6,8-difluoroquinazolin-7-yl)-5-ethylnaphthalen-2-ol dihydrochloride] are 17.3 nM, 11 nM and 251 nM.
Taken in the same sequence, the figures for `C[C@H](COc1nc(N2CC3CCC(C2)N3)c2cc(Cl)c(-c3cc(O)cc4ccccc34)c(F)c2n1)CN1C[C@@H](C)O[C@@H](C)C1` (single isomer, unassigned) [Compound 206, 4-((S or R)-4-((1R,5S)-3,8-diazabicyclo[3.2.1]octan-3-yl)-6-chloro-2-((S)-3-((2S,6R)-2,6-dimethylmorpholinyl)-2-methylpropoxy)-8-fluoroquinazolin-7-yl)naphthalen-2-ol diformate] were 46.1 nM, 134 nM and 6830 nM.
Consider `CNCCCOc1nc(N2CC3CCC(C2)N3)c2cc(Cl)c(-c3cc(O)cc4ccccc34)c(F)c2n1` (single isomer, unassigned) [Compound 93, 4-((S or R)-4-((1R,5S)-3,8-diazabicyclo[3.2.1]octan-3-yl)-6-chloro-8-fluoro-2-(3-(methylamino)propoxy)quinazolin-7-yl)naphthalen-2-ol dihydrochloride], for which the IC50 is 12.3 nM on KRAS-G12D and SOS1; 82.1 nM on KRAS_G12D and cRAF; 2030 nM on KRAS_WT and SOS1.
Taken in the same sequence, the figures for `CC(COc1nc(N2CC3CCC(C2)N3)c2cc(Cl)c(-c3cc(O)cc4ccccc34)c(F)c2n1)CN1C2CCC1COC2` (single isomer, unassigned) [Compound 178b, 4-((7R or 7S)-2-((2S or 2R)-3-(3-oxa-8-azabicyclo[3.2.1]octan-8-yl)-2-methylpropoxy)-4-((1R,5S)-3,8-diazabicyclo[3.2.1]octan-3-yl)-6-chloro-8-fluoroquinazolin-7-yl)naphthalen-2-ol dicarboxylate] were 39.7 nM, 150 nM and 1050 nM.
For `C[C@@H](COc1nc(N2CC3CCC(C2)N3)c2cc(Cl)c(-c3cc(O)cc4ccccc34)c(F)c2n1)CN1C[C@@H](C)OC[C@H]1C` (single isomer, unassigned) [Compound 236, 4-((S or R)-4-((1R,5S)-3,8-diazacyclo[3.2.1]octan-3-yl)-6-chloro-2-((R)-3-((2R,5R)-2,5-dimethylmorpholinyl)-2-methylpropoxy)-8-fluoroquinazolin-7-yl)naphthalen-2-ol formate], the IC50 came to 19.1 nM at KRAS-G12D and SOS1; 15 nM on KRAS_G12D and cRAF; 309 nM on KRAS_WT and SOS1.
